Key:
Rattus norvegicus [1] = test: Antiamnesic activity in scopolamine-induced memory deficit rat assessed as training trial latency time at 0.001 mg/kg, ip; format: functional; conditions: route intraperitoneal
Rattus norvegicus [2] = test: Antiamnesic activity in scopolamine-induced memory deficit rat assessed as training trial latency time at 0.005 mg/kg, ip; format: functional; conditions: route intraperitoneal
Rattus norvegicus [3] = test: Antiamnesic activity in scopolamine-induced memory deficit rat assessed as training trial latency time at 0.01 mg/kg, ip; format: functional; conditions: route intraperitoneal
Rattus norvegicus [4] = test: Antiamnesic activity in scopolamine-induced memory deficit rat assessed as training trial latency time at 0.1 mg/kg, ip; format: functional; conditions: route intraperitoneal
Rattus norvegicus [5] = test: Antiamnesic activity in scopolamine-induced memory deficit rat assessed as retention trial latency time at 0.001 mg/kg, ip after 24 hrs; format: functional; conditions: route intraperitoneal
Rattus norvegicus [6] = test: Antiamnesic activity in scopolamine-induced memory deficit rat assessed as retention trial latency time at 0.005 mg/kg, ip after 24 hrs; format: functional; conditions: route intraperitoneal
Rattus norvegicus [7] = test: Antiamnesic activity in scopolamine-induced memory deficit rat assessed as retention trial latency time at 0.01 mg/kg, ip after 24 hrs; format: functional; conditions: route intraperitoneal
Rattus norvegicus [8] = test: Antiamnesic activity in scopolamine-induced memory deficit rat assessed as retention trial latency time at 0.1 mg/kg, ip after 24 hrs; format: functional; conditions: route intraperitoneal
Acetylcholinesterase = Acetylcholinesterase (Homo sapiens, UniProt P22303); test: Inhibition of acetylcholinesterase
Cholinesterase = Cholinesterase (Homo sapiens, UniProt P06276); test: Inhibition of butyrylcholinesterase
Rattus norvegicus [9] = test: Antiamnesic activity in scopolamine-induced memory deficit rat assessed as training trial latency time at 0.5 mg/kg, ip; format: functional; conditions: route intraperitoneal
Rattus norvegicus [10] = test: Antiamnesic activity in scopolamine-induced memory deficit rat assessed as training trial latency time at 50 mg/kg, ip; format: functional; conditions: route intraperitoneal
Rattus norvegicus [11] = test: Antiamnesic activity in scopolamine-induced memory deficit rat assessed as retention trial latency time at 0.5 mg/kg, ip after 24 hrs; format: functional; conditions: route intraperitoneal
Rattus norvegicus [12] = test: Antiamnesic activity in scopolamine-induced memory deficit rat assessed as retention trial latency time at 50 mg/kg, ip after 24 hrs; format: functional; conditions: route intraperitoneal
Rattus norvegicus [13] = test: Antiamnesic activity in scopolamine-induced memory deficit rat assessed as training trial latency time at 0.02 mg/kg, ip; format: functional; conditions: route intraperitoneal
Rattus norvegicus [14] = test: Antiamnesic activity in scopolamine-induced memory deficit rat assessed as training trial latency time at 1.0 mg/kg, ip; format: functional; conditions: route intraperitoneal
Rattus norvegicus [15] = test: Antiamnesic activity in scopolamine-induced memory deficit rat assessed as training trial latency time at 100 mg/kg, ip; format: functional; conditions: route intraperitoneal
Rattus norvegicus [16] = test: Antiamnesic activity in scopolamine-induced memory deficit rat assessed as retention trial latency time at 0.02 mg/kg, ip after 24 hrs; format: functional; conditions: route intraperitoneal
Rattus norvegicus [17] = test: Antiamnesic activity in scopolamine-induced memory deficit rat assessed as retention trial latency time at 1.0 mg/kg, ip after 24 hrs; format: functional; conditions: route intraperitoneal
Rattus norvegicus [18] = test: Antiamnesic activity in scopolamine-induced memory deficit rat assessed as retention trial latency time at 100 mg/kg, ip after 24 hrs; format: functional; conditions: route intraperitoneal
Rattus norvegicus [19] = test: Antiamnesic activity in scopolamine-induced memory deficit rat assessed as training trial time at 0.024 mg/kg, ip; format: functional; conditions: route intraperitoneal
Rattus norvegicus [20] = test: Antiamnesic activity in scopolamine-induced memory deficit rat assessed as training trial latency time at 0.24 mg/kg, ip; format: functional; conditions: route intraperitoneal
Rattus norvegicus [21] = test: Antiamnesic activity in scopolamine-induced memory deficit rat assessed as training trial latency time at 1.2 mg/kg, ip; format: functional; conditions: route intraperitoneal
Rattus norvegicus [22] = test: Antiamnesic activity in scopolamine-induced memory deficit rat assessed as training trial latency time at 2.4 mg/kg, ip; format: functional; conditions: route intraperitoneal
Rattus norvegicus [23] = test: Antiamnesic activity in scopolamine-induced memory deficit rat assessed as retention trial latency time at 0.024 mg/kg, ip after 24 hrs; format: functional; conditions: route intraperitoneal
Rattus norvegicus [24] = test: Antiamnesic activity in scopolamine-induced memory deficit rat assessed as retention trial latency time at 0.24 mg/kg, ip after 24 hrs; format: functional; conditions: route intraperitoneal
Rattus norvegicus [25] = test: Antiamnesic activity in scopolamine-induced memory deficit rat assessed as retention trial latency time at 1.2 mg/kg, ip after 24 hrs; format: functional; conditions: route intraperitoneal
Rattus norvegicus [26] = test: Antiamnesic activity in scopolamine-induced memory deficit rat assessed as retention trial latency time at 2.4 mg/kg, ip after 24 hrs; format: functional; conditions: route intraperitoneal
Rattus norvegicus [27] = test: Antiamnesic activity in scopolamine-induced memory deficit rat assessed as training trial latency time at 17.37 mg/kg, ip; format: functional; conditions: route intraperitoneal
Rattus norvegicus [28] = test: Antiamnesic activity in scopolamine-induced memory deficit rat assessed as training trial latency time at 34.73 mg/kg, ip; format: functional; conditions: route intraperitoneal
Rattus norvegicus [29] = test: Antiamnesic activity in scopolamine-induced memory deficit rat assessed as retention trial latency time at 17.37 mg/kg, ip after 24 hrs; format: functional; conditions: route intraperitoneal
Rattus norvegicus [30] = test: Antiamnesic activity in scopolamine-induced memory deficit rat assessed as retention trial latency time at 34.73 mg/kg, ip after 24 hrs; format: functional; conditions: route intraperitoneal

Cholinesterase, sequence (P06276 whole entry): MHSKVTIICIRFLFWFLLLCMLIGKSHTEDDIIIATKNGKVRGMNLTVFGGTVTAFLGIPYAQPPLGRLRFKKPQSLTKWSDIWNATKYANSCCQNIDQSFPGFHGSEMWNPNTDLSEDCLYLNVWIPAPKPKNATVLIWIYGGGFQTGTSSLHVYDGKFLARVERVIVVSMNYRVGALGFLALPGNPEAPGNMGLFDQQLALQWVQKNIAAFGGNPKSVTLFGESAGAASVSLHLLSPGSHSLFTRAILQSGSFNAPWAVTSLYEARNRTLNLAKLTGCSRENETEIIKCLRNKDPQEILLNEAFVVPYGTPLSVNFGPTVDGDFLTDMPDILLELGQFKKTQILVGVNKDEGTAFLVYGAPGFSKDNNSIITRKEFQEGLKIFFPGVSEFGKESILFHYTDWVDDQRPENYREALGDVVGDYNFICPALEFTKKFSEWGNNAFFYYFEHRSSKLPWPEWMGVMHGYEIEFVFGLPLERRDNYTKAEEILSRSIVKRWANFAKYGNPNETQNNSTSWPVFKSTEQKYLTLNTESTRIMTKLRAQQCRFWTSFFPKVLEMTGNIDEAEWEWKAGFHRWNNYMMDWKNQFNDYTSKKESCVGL
Acetylcholinesterase, sequence (P22303 whole entry): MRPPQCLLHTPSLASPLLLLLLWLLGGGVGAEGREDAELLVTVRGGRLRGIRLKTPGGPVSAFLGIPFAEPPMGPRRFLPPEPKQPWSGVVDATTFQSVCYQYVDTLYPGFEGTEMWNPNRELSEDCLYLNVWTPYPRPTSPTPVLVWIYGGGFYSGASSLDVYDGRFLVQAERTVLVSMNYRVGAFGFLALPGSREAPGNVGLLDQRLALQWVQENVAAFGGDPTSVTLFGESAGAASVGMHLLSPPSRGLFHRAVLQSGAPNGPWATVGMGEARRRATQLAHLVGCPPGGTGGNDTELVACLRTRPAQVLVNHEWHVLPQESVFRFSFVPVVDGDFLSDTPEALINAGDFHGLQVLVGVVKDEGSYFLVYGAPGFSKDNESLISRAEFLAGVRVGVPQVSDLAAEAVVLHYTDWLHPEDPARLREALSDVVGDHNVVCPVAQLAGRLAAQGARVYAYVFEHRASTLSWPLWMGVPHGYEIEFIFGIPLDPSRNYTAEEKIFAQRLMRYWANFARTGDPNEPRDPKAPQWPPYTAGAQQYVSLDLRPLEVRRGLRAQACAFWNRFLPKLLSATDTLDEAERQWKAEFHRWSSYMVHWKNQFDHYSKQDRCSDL

Question: With Nc1ccncc1 [DALFAMPRIDINE] as the compound, how does the Time (Rattus norvegicus [1]) read?
Answer: 20.8 s

Question: And the Time (Rattus norvegicus [2])?
Answer: 22.1 s

Question: What about the Time (Rattus norvegicus [3]) of the same compound?
Answer: 46.3 s

Question: What about the Time (Rattus norvegicus [4]) of the same compound?
Answer: 20.3 s

Question: And the Time (Rattus norvegicus [5])?
Answer: 38.5 s

Question: What about the Time (Rattus norvegicus [6]) of the same compound?
Answer: 92.3 s

Question: What about the Time (Rattus norvegicus [7]) of the same compound?
Answer: 63.5 s

Question: What about the Time (Rattus norvegicus [8]) of the same compound?
Answer: 33.6 s

Question: What does the source list for CN(C)CCOC(=O)Nc1ccncc1?
Answer: Ki (Acetylcholinesterase): 314 µM; Ki (Cholinesterase): 20.4 µM; Time (Rattus norvegicus [3]): 20.3 s; Time (Rattus norvegicus [9]): 43.6 s; Time (Rattus norvegicus [10]): 25.5 s; Time (Rattus norvegicus [7]): 12.1 s; Time (Rattus norvegicus [11]): 49.7 s; Time (Rattus norvegicus [12]): 39.6 s

Question: With C[N+](C)(C)CCOC(=O)Nc1ccncc1Br as the compound, how does the Ki (Acetylcholinesterase) read?
Answer: 116 µM

Question: And the Ki (Cholinesterase)?
Answer: 274 µM

Question: What does the source list for C[N+](C)(C)CCOC(=O)Nc1ccncc1.[I-]?
Answer: Ki (Acetylcholinesterase): 159 µM; Ki (Cholinesterase): 754 µM; Time (Rattus norvegicus [13]): 37.3 s; Time (Rattus norvegicus [14]): 21.4 s; Time (Rattus norvegicus [15]): 30.6 s; Time (Rattus norvegicus [16]): 40.4 s; Time (Rattus norvegicus [17]): 21 s; Time (Rattus norvegicus [18]): 21.3 s

Question: For C[N+](C)(C)CCOC(=O)Nc1cc(Cl)nc(Cl)c1.[I-], which Ki (Acetylcholinesterase) is on record?
Answer: 64.4 µM

Question: And the Ki (Cholinesterase)?
Answer: 19.5 µM

Question: And the Time (Rattus norvegicus [19])?
Answer: 14.4 s

Question: And the Time (Rattus norvegicus [20])?
Answer: 19.7 s

Question: What about the Time (Rattus norvegicus [21]) of the same compound?
Answer: 21.4 s

Question: What about the Time (Rattus norvegicus [22]) of the same compound?
Answer: 19 s

Question: And the Time (Rattus norvegicus [23])?
Answer: 36.8 s

Question: And the Time (Rattus norvegicus [24])?
Answer: 56.9 s

Question: What about the Time (Rattus norvegicus [25]) of the same compound?
Answer: 92.9 s

Question: And the Time (Rattus norvegicus [26])?
Answer: 32.3 s

Question: With CN(C)CCOC(=O)Nc1cc(Cl)nc(Cl)c1 as the compound, how does the Ki (Acetylcholinesterase) read?
Answer: 140 µM

Question: What about the Ki (Cholinesterase) of the same compound?
Answer: 174 µM

Question: For CC(C)(C)C(=O)OCC[N+](C)(C)C.CC(C)(C)C(=O)[O-], which Time (Rattus norvegicus [27]) is on record?
Answer: 38.8 s

Question: And the Time (Rattus norvegicus [28])?
Answer: 14.5 s

Question: What about the Time (Rattus norvegicus [29]) of the same compound?
Answer: 36.8 s

Question: And the Time (Rattus norvegicus [30])?
Answer: 45.8 s

Question: With C[N+](C)(C)CCOC(=O)Nc1ccnc(Cl)c1 as the compound, how does the Ki (Acetylcholinesterase) read?
Answer: 151 µM

Question: What about the Ki (Cholinesterase) of the same compound?
Answer: 161 µM

Question: How did the Ki (Acetylcholinesterase) turn out when CN(C)CCOC(=O)Nc1ccnc(Cl)c1 was run?
Answer: 208 µM

Question: What about the Ki (Cholinesterase) of the same compound?
Answer: 380 µM

Question: CN(C)CCOC(=O)Nc1ccncc1Br was tested. Which Ki (Acetylcholinesterase) did it give?
Answer: 316 µM

Question: And the Ki (Cholinesterase)?
Answer: 273 µM
